In publication PMC5341752, “New bipyridine gold(III) dithiocarbamate-containing complexes exerted a potent anticancer activity against cisplatin-resistant cancer cells independent of p53 status” (Oncotarget, 2016):
Each block holds one molecule with its values, some of them ahead of it.

Assays:
[1] = tested on: tumor cells; experiment: Cytochrome-c release, flow cytometry; assay type: cell-based, human; conditions: IC75, 24 h
[2] = tested on: tumor cells; experiment: Caspase 9 activation, FLICA reagent, flow cytometry; assay type: cell-based, human; conditions: IC75, 24 h
Method: (§1) PC3 (2.5 × 10^4), MCF-7 (5.0 × 10^4), A2780 and A2780cis (5.0 × 10^4), and L-540 cells (2.0 × 10^5/mL) were incubated in six-well plates with compound 1 (IC75) (Figure 1) for 72 h. Annexin-V binding (Becton-Dickinson [BD] Pharmingen, San Jose, CA) together with propidium iodide (PI) staining was detected in tumor cells by flow cytometry, as described. Caspase 3 and 9 activation was evaluated using the fluorochrome inhibitors of caspases (FLICA) Caspa-TagTM caspase-3/7 (FAM-DEVD-FMK) and caspase 9 (FAM-LETD) (Chemicon International, Milan, Italy). Briefly, cells were treated with compound 1 (IC75), then harvested, washed and resuspended in warmed complete medium supplemented with FLICA for 1 h and then immediately analyzed by flow cytometry. DNA fragmentation was assessed using the Apo-Direct kit (Becton-Dickinson Pharmigen, CA, USA) according to manufacturer's instructions. […] Red fluorescence was immediately analyzed by flow cytometry. Viable cells were identified according to their forward and right-angle scattering, electronically gated and analyzed on a FACScan flow cytometer (BD), using CellQuest software (BD). […] After 72 h, ROS formation and viable cells number were evaluated by flow cytometry and trypan blue dye exclusion assay, respectively. […]

[3] = tested on: A2780, A2780cis, MCF-7, PC3, L-540 cells; experiment: Caspase 3 activation, FLICA reagent, flow cytometry; assay type: cell-based, human; conditions: IC75, 0, 24 and 48 h
Method: as §1

[4] = tested on: A2780cis cells; experiment: Growth inhibition, MTT assay, cisplatin-resistant A2780cis cells; assay type: cell-based, human; conditions: for IC50: mean ± SEM; for Fold resistance A2780cis/A2780 ratio: ratio A2780cis IC50/A2780 IC50
Method: (§2) PC3 and MCF-7 cells (2.5 × 10^3), A2780, A2780cis (4.0 × 10^3), A2780CP-16 and lung cancer cells (H460, A549, H226, H838, H157, H1975, H2122, SKLU1 and H1299) were seeded in 96-well flat-bottomed microplates (100 μL) and incubated for 24 h (to allow cell adhesion) before drug testing. The medium was then removed and replaced with fresh medium containing the gold(III) complexes (compound 1–9) to be tested at increasing concentrations (from 0.01 to 100 μM) at 37°C for 72 h. Each treatment was performed in triplicate. Cell proliferation was assayed using the MTT assay. Alternatively, L-540 cells (2.0 × 10^5/mL) were seeded in 96-well plates and treated as previously described. After treatment, cell proliferation was evaluated by the MTS assay (Promega). IC50 (i.e., the half maximal inhibitory concentration representing the concentration of a substance required for 50% in vitro inhibition) IC75 and IC90 values (Supplementary Table S1) were calculated using the CalcuSyn software (Biosoft, Ferguson, MO, USA). Dependence of activity on p53 was assessed in A2780 cells following p53 knockdown by CRISPR [48].

[5] = tested on: tumor cells; experiment: Mitochondrial ROS, MitoSox, flow cytometry; assay type: cell-based, human; conditions: IC75, 72 h
Method: as §1

[6] = tested on: PC3 cells; experiment: Growth inhibition, MTT assay, PC3 cells; assay type: cell-based, human; conditions: 72 h exposure; for IC50: mean ± SEM
Method: as §2

[7] = tested on: L-540 cells; experiment: Growth inhibition, MTS assay, L-540 cells; assay type: cell-based, human; conditions: 72 h exposure; for IC50: mean ± SEM
Method: as §2

[8] = tested on: tumor cells; experiment: Mitochondrial membrane permeabilization, CMXRos, flow cytometry; assay type: cell-based, human; conditions: IC75, 24 h
Method: as §1

[9] = tested on: A2780 cells; experiment: Growth inhibition, MTT assay, A2780 cells; assay type: cell-based, human; conditions: 72 h exposure; for IC50: mean ± SEM
Method: as §2

[10] = tested on: MCF-7 cells; experiment: Growth inhibition, MTT assay, MCF-7 cells; assay type: cell-based, human; conditions: for IC50: mean ± SEM
Method: as §2

[11] = tested on: A2780, A2780cis, MCF-7, PC3, L-540 cells; experiment: Apoptosis, Annexin V/PI double staining, flow cytometry; assay type: cell-based, human; conditions: IC75, 72 h
Method: as §1

[12] = Stability by UV-Vis spectra in DMSO over 24 hours at 37°C; assay type: physicochemical; conditions: DMSO solution
Method: Electronic spectra were recorded on each complex freshly prepared in DMSO solution at room temperature. Then, their electronic spectra were monitored over 24 hours at 37°C. The resulting UV-Vis absorption spectra of compound 1, 2 and 3 are shown in Supplementary Figure S4A–S4C.

[13] = tested on: human Mesenchymal stromal cells (MSCs); experiment: Proliferation of normal Mesenchymal stromal cells, MTT assay; assay type: cell-based; conditions: 72 h
Method: Bone Marrow (BM) derived human Mesenchymal Stromal Cells (MSCs) were from Lonza (Lonza, Verviers, Belgium). MSCs were maintained in MSGM bullet kit (Lonza) and experiments were performed in DMEM medium (Cambrex Bio Science, Milano, Italy) supplemented with 10% FCS. To evaluate effects of compound 1, MSCs (5.0 × 10^3) were seeded in 96-well flat-bottomed microplates (100 μL) and incubated for 24 h (to allow cell adhesion) before drug testing. The medium was then removed and replaced with fresh medium containing compound 1 to be tested at increasing concentrations (from 0.1 to 1 μM) at 37°C for 72 h. Each treatment was performed in triplicate. Cell proliferation was assayed using the MTT assay.

[14] = tested on: tumor cells; experiment: Cell cycle progression; assay type: cell-based; conditions: data not shown
[15] = tested on: A2780, A2780cis, MCF-7, PC3, L-540 cells; experiment: DNA fragmentation, Apo-Direct, flow cytometry; assay type: cell-based, human; conditions: IC75, 72 h
Method: as §1

[16] = tested on: A2780 CRISPR p53 KO cells; experiment: MTT assay in A2780 clone with p53 knocked out by CRISPR/Cas9; assay type: cell-based, human; conditions: mean ± SEM
Method: as §2

[17] = tested on: A2780 CRISPR Control cells (WT-p53); experiment: MTT assay in A2780 clone transfected with CRISPR control plasmid; assay type: cell-based, human; conditions: mean ± SEM
Method: as §2

[18] = tested on: NSCLC cell lines (H460, A549, H226, H838, H157, H1975, H2122, SKLU1, H1299); experiment: Cytotoxicity in a panel of NSCLC cell lines, MTT assay; assay type: cell-based; conditions: all NSCLC cell lines
Method: as §2

[19] = tested on: 2780CP cells; parameters: method as in PMID 10643661; conditions: 2780CP-16 versus A2780; cited from earlier work

Molecule: CN(C)C1=[S+][Au-]2([S]1)[n+]1ccccc1-c1cccc[n+]12.[Cl-].[Cl-] [Compound 1, [Au(BPY)(DMTC)]Cl2]
cytochrome-c release from the mitochondria [1]: cytochrome-c (Cyt-c) release | caspase 9 activation [2]: induced activation of caspase 9 | caspase 3 activation [3]: induced a time-dependent activation of caspase 3 | IC75 A2780cis ([4]; 72 h exposure, MTT): 430 ± 40 nM | IC90 ([4]; 72 h exposure, MTT): 560 ± 60 nM | IC50 ([4]; 72 h exposure, MTT): 170 ± 10 nM | fold more active than cisplatin in inhibiting cell proliferation ([4]; A2780cis cells): about 60 fold | mitochondrial ROS levels [5]: increased mitochondrial ROS levels | IC75 PC3 [6]: 730 ± 70 nM | IC90 [6]: 910 ± 110 nM | IC50 [6]: 420 ± 40 nM | IC75 L-540 [7]: 3500 ± 320 nM | IC90 [7]: 4200 ± 390 nM | IC50 [7]: 2680 ± 240 nM | mitochondrial membrane permeabilization [8]: promoted mitochondrial membrane permeabilization | IC75 A2780 [9]: 450 ± 40 nM | IC90 [9]: 600 ± 50 nM | IC50 [9]: 180 ± 20 nM | IC75 MCF-7 ([10]; 72 h exposure, MTT): 510 ± 50 nM | IC90 ([10]; 72 h exposure, MTT): 740 ± 80 nM | IC50 ([10]; 72 h exposure, MTT): 270 ± 20 nM | fold more active than cisplatin in inhibiting cell proliferation ([10]; MCF-7 cells): ~80 fold | apoptosis (Annexin-V/PI) [11]: induced apoptosis in the cell lines tested | stability by UV spectra [12]: confirm the stability under physiological temperature | IC50 [13]: 960 nM | cell cycle progression [14]: only slightly affected | DNA fragmentation (Apo-Direct) [15]: Apoptosis induction was confirmed by DNA fragmentation

Molecule: CCN(CC)C(=S)[S-].[Au+3].[Cl-].[Cl-].c1ccc(-c2ccccn2)nc1 [Compound 2, [Au(BPY)(DETC)]Cl2]
IC50 ([4]; 72 h exposure, MTT): 180 ± 10 nM | IC50 [6]: 700 ± 60 nM | IC50 [7]: 2800 ± 250 nM | IC50 [9]: 240 ± 20 nM | IC50 ([10]; 72 h exposure, MTT): 270 ± 20 nM | stability by UV spectra [12]: confirm the stability under physiological temperature

Molecule: S=C([S-])N(Cc1ccccc1)Cc1ccccc1.[Au+3].[Cl-].[Cl-].c1ccc(-c2ccccn2)nc1 [Compound 3, [Au(BPY)(DBTC)]Cl2]
IC50 ([4]; 72 h exposure, MTT): 14300 ± 1120 nM | Fold resistance A2780cis/A2780 ratio [4]: 3.07 | IC50 [16]: 1130 ± 390 nM | IC50 [6]: 11200 ± 1000 nM | IC50 [7]: 12000 ± 1080 nM | IC50 [9]: 4660 ± 130 nM | IC50 ([10]; 72 h exposure, MTT): 23000 ± 2070 nM | IC50 [17]: 870 ± 110 nM | stability by UV spectra [12]: confirm the stability under physiological temperature

Molecule: Cc1ccc2[n+](c1)[Au-]1([S]C(N(C)C)=[S+]1)[n+]1cc(C)ccc1-2.[Cl-].[Cl-] [Compound 4, [Au(5,5′-Me2BPY)(DMTC)]Cl2]
IC50 ([4]; 72 h exposure, MTT): 170 ± 10 nM | IC50 [16]: 83 ± 3 nM | IC50 [6]: 590 ± 50 nM | IC50 [7]: 2700 ± 220 nM | IC50 [9]: 280 ± 30 nM | IC50 ([10]; 72 h exposure, MTT): 280 ± 20 nM | IC50 [17]: 87 ± 3 nM | fold greater potency than compounds 3, 6 and 9 [18]: at least 10 fold

Molecule: CCN(CC)C1=[S+][Au-]2([S]1)[n+]1cc(C)ccc1-c1ccc(C)c[n+]12.Cl.Cl [Compound 5, [Au(5,5′-Me2BPY)(DETC)]Cl2]
IC50 ([4]; 72 h exposure, MTT): 230 ± 20 nM | IC50 [6]: 860 ± 80 nM | IC50 [7]: 2900 ± 260 nM | IC50 [9]: 590 ± 50 nM | IC50 ([10]; 72 h exposure, MTT): 290 ± 30 nM

Molecule: Cc1ccc2[n+](c1)[Au-]1([S]C(N(Cc3ccccc3)Cc3ccccc3)=[S+]1)[n+]1cc(C)ccc1-2.[Cl-].[Cl-] [Compound 6, [Au(5,5′-Me2BPY)(DBTC)]Cl2]
IC50 ([4]; 72 h exposure, MTT): 15700 ± 1410 nM | Fold resistance A2780cis/A2780 ratio [4]: 2.47 | IC50 [6]: 11600 ± 1040 nM | IC50 [7]: 6500 ± 60 nM | IC50 [9]: 6350 ± 60 nM | IC50 ([10]; 72 h exposure, MTT): 18000 ± 1620 nM

Molecule: Cc1cccc2[n+]1[Au-]1([S]C(N(C)C)=[S+]1)[n+]1c(C)cccc1-2.[Cl-].[Cl-] [Compound 7, [Au(6,6′-Me2BPY)(DMTC)]Cl2]
IC50 ([4]; 72 h exposure, MTT): 230 ± 20 nM | IC50 [6]: 770 ± 70 nM | IC50 [7]: 3600 ± 320 nM | IC50 [9]: 270 ± 20 nM | IC50 ([10]; 72 h exposure, MTT): 350 ± 30 nM | fold greater potency than compounds 3, 6 and 9 [18]: at least 10 fold

Molecule: CCN(CC)C1=[S+][Au-]2([S]1)[n+]1c(C)cccc1-c1cccc(C)[n+]12.Cl.Cl [Compound 8, [Au(6,6′-Me2BPY)(DETC)]Cl2]
IC50 ([4]; 72 h exposure, MTT): 450 ± 30 nM | IC50 [6]: 1600 ± 140 nM | IC50 [7]: 6200 ± 560 nM | IC50 [9]: 730 ± 60 nM | IC50 ([10]; 72 h exposure, MTT): 470 ± 40 nM

Molecule: Cc1cccc2[n+]1[Au-]1([S]C(N(Cc3ccccc3)Cc3ccccc3)=[S+]1)[n+]1c(C)cccc1-2.[Cl-].[Cl-] [Compound 9, [Au(6,6′-Me2BPY)(DBTC)]Cl2]
IC50 ([4]; 72 h exposure, MTT): 16000 ± 1440 nM | Fold resistance A2780cis/A2780 ratio [4]: 2.39 | IC50 [6]: 11500 ± 1030 nM | IC50 [7]: 35800 ± 3220 nM | IC50 [9]: 6700 ± 600 nM | IC50 ([10]; 72 h exposure, MTT): 31000 ± 2790 nM

IC50 ([4]; 72 h exposure, MTT): 10400 ± 900 nM | IC50 [6]: 3300 ± 300 nM | IC50 [9]: 1500 ± 100 nM | IC50 ([10]; 72 h exposure, MTT): 22200 ± 200 nM
Molecule: cis-[Pt(NH3)2Cl2] [Cisplatin]
fold cisplatin resistance of 2780CP cells [19]: 20 fold | Fold resistance A2780cis/A2780 ratio [4]: 6.93 | Fold resistance A2780cis/A2780 ratio ([4]; listed as cisplatin): about 7 | IC50 [7]: 2500 ± 100 nM
